Source: patent US9840510B1, “Pyrazolo[1,5-a]pyrimidinyl carboxamide compounds and their use in the treatment of medical disorders” (Lysosomal Therapeutics Inc., priority 2016, dated 2017)
≈ marks a conversion by molar mass, not a printed value.

Test: Compound solubility in water
Format: physicochemical

Compound	solubility [µg/mL]
Cc1cc(-c2cccc3ncoc23)nc2c(C(=O)NC(C)(C)C(F)(F)F)cnn12 [III-219]	2.7 (≈ 6.69 µM)
Cc1cc(-c2cncc(Cl)c2)nc2c(C(=O)N[C@H](C3CC3)C(F)(F)F)cnn12 [III-120]	0.7 (≈ 1.71 µM)
Cc1ncc(-c2cc(C)n3ncc(C(=O)N[C@H](C4CC4)C(F)(F)F)c3n2)o1 [III-247]	0.6 (≈ 1.58 µM)
Cc1cc(-c2ccncc2)nc2c(C(=O)NC(C)C3CC3)cnn12 (stereo not shown) [III-28]	27.6 (≈ 85.9 µM)
COc1ccc(F)c(-c2cc(C)n3ncc(C(=O)N[C@@H](C)C(F)(F)F)c3n2)c1 [III-98]	0.3 (≈ 0.757 µM)
Cc1cc(-c2ccncc2)n2ncc(C(=O)NC(C)(C)C3CC3)c2n1 [III-21]	10 (≈ 29.8 µM)
Cc1cc(-c2cncc(F)c2)nc2c(C(=O)N[C@H](C3CC3)C(F)(F)F)cnn12 [III-126]	1.8 (≈ 4.58 µM)
Cc1cc(NC2CC2)nc2c(C(=O)NC(C3CC3)C3CC3)cnn12 [III-78]	5.6 (≈ 17.2 µM)
Cc1cc(-c2cccc3ncsc23)nc2c(C(=O)NC(C)C(F)(F)F)cnn12 (stereo not shown) [III-221]	0.2 (≈ 0.493 µM)
Cc1cc(C)n2ncc(C(=O)N[C@@H](C3CC3)C(F)(F)F)c2n1 [III-11]	13.4 (≈ 42.9 µM)
COc1cc(C#N)cc(-c2cc(C)n3ncc(C(=O)N[C@@H](C)C4CC4)c3n2)c1 [III-129]	0.02 (≈ 0.0533 µM)
Cc1cc(N2CCN(C(C)C)C2=O)nc2c(C(=O)NC(C)(C)C3CC3)cnn12 [III-230]	2.6 (≈ 6.76 µM)
Cc1cc(C)n2ncc(C(=O)N[C@H](C)C3CCCCC3)c2n1 [III-3]	8.7 (≈ 29 µM)
Cc1cc(Cl)nc2c(C(=O)NC(C3CC3)C(F)(F)F)cnn12 (stereo not shown) [III-45]	10.2 (≈ 30.7 µM)
Cc1cc(-c2cc(C)n3ncc(C(=O)N[C@@H](C4CC4)C(F)(F)F)c3n2)sn1 [III-216]	0.9 (≈ 2.28 µM)
Cc1cc(-n2ccc(F)n2)nc2c(C(=O)N[C@H](C3CC3)C(F)(F)F)cnn12 [III-173]	1.4 (≈ 3.66 µM)
Cc1cc(-c2ccc(F)cc2C#N)nc2c(C(=O)N[C@H](C)C3CC3)cnn12 [III-153]	4.5 (≈ 12.4 µM)
Cc1cc(-c2ccc(F)cc2)n2nc(Cl)c(C(=O)N[C@@H](C)C3CC3)c2n1 [III-33]	0.5 (≈ 1.34 µM)
Cc1cc(-c2ccns2)nc2c(C(=O)NC(C)C(F)(F)F)cnn12 (stereo not shown) [III-178]	0.7 (≈ 1.97 µM)
Cc1cc(-c2ccc(Cl)cn2)nc2c(C(=O)NC(C3CC3)C(F)(F)F)cnn12 (stereo not shown) [III-208]	0.04 (≈ 0.0976 µM)
Cc1oc(C#N)cc1-c1cc(C)n2ncc(C(=O)NC(C3CC3)C(F)(F)F)c2n1 (stereo not shown) [III-242]	3.2 (≈ 7.93 µM)
Cc1cc(N2CCCCC2)nc2c(C(=O)NC(C)C3CC3)cnn12 (stereo not shown) [III-31]	43.5 (≈ 133 µM)
Cc1cc(N2CCCCC2)n2ncc(C(=O)N[C@@H](C)C3CC3)c2n1 [III-30]	4.7 (≈ 14.4 µM)
Cc1cc(-c2cccc(C#N)n2)nc2c(C(=O)NC(C3CC3)C(F)(F)F)cnn12 (stereo not shown) [III-133]	0.2 (≈ 0.5 µM)
Cc1cc(-c2cccc3c2OCO3)nc2c(C(=O)N[C@@H](C)C3CC3)cnn12 [III-182]	0.2 (≈ 0.549 µM)
Cc1cc(-c2cncc(Cl)c2)nc2c(C(=O)N[C@H](C)C(F)(F)F)cnn12 [III-201]	3.1 (≈ 8.08 µM)

Next, values leading:

solubility [µg/mL]	Compound
2.1 (≈ 5.03 µM)	Cc1cc(-c2cncc(C(F)(F)F)c2)nc2c(C(=O)N[C@H](C)C(F)(F)F)cnn12 [III-286]
0.6 (≈ 1.45 µM)	Cc1cc(-c2nc3ccccc3[nH]2)nc2c(C(=O)NC(C3CC3)C(F)(F)F)cnn12 (stereo not shown) [III-311]
31.4 (≈ 73.3 µM)	Cc1cc(-c2cccc3ncn(C)c23)nc2c(C(=O)NC(C3CC3)C(F)(F)F)cnn12 (stereo not shown) [III-309]
8.9 (≈ 22 µM)	COc1ccncc1-c1cc(C)n2ncc(C(=O)NC(C3CC3)C(F)(F)F)c2n1 (stereo not shown) [III-263]
4.6 (≈ 11.1 µM)	Cc1cc(-c2cccc3nc[nH]c23)nc2c(C(=O)NC(C3CC3)C(F)(F)F)cnn12 (stereo not shown) [III-308]
3.7 (≈ 11.4 µM)	C#CC(C)(C)NC(=O)c1cnn2c(C)cc(-c3ccns3)nc12 [III-412]
0.4 (≈ 0.979 µM)	Cc1cc(-c2nnc(C(C)C)o2)nc2c(C(=O)N[C@@H](C3CC3)C(F)(F)F)cnn12 [III-392]
0.2 (≈ 0.55 µM)	Cc1cc(-c2cccc(F)c2C#N)nc2c(C(=O)N[C@@H](C)C3CC3)cnn12 [III-398]
6 (≈ 13.5 µM)	Cc1cc(-c2cccc(C(=O)N(C)C)c2)nc2c(C(=O)NC(C3CC3)C(F)(F)F)cnn12 (stereo not shown) [III-413]
2.6 (≈ 6.68 µM)	Cc1cncc(-c2cc(C)n3ncc(C(=O)NC(C4CC4)C(F)(F)F)c3n2)c1 (stereo not shown) [III-275]
0.3 (≈ 0.767 µM)	Cc1cc(-c2cc(F)ccc2C#N)nc2c(C(=O)N[C@@H](C)C(F)(F)F)cnn12 [III-350]
1 (≈ 2.72 µM)	Cc1nc(-c2cc(C)n3ncc(C(=O)N[C@H](C)C(F)(F)F)c3n2)oc1C [III-345]
0.1 (≈ 0.256 µM)	Cc1cc(-c2cc(F)ccc2C#N)nc2c(C(=O)N[C@H](C)C(F)(F)F)cnn12 [III-349]
1.4 (≈ 3.35 µM)	Cc1cc(-c2ccc(C(F)(F)F)nc2)nc2c(C(=O)NC(C)C(F)(F)F)cnn12 (stereo not shown) [III-288]
1.3 (≈ 3.34 µM)	Cc1ccc(-c2cc(C)n3ncc(C(=O)N[C@@H](C4CC4)C(F)(F)F)c3n2)cn1 [III-280]
4.9 (≈ 12.9 µM)	COc1cncc(-c2cc(C)n3ncc(C(=O)NC(C)C(F)(F)F)c3n2)c1 (stereo not shown) [III-270]
0.5 (≈ 1.42 µM)	Cc1cc(-c2sccc2C#N)nc2c(C(=O)N[C@H](C)C3CC3)cnn12 [III-302]
